Measurements published in patent EP1368050B1, “VIRUS DERIVED ANTIMICROBIAL PEPTIDES” (priority 2001, dated 2008).
Residues, ends and D or L forms follow the SMILES beside them.

Assays:
[1] = test system: Ca^2+-saturated calmodulin; conditions: host cell Ca^2+-saturated calmodulin; cited from earlier work
Pseudomonas aeruginosa = conditions: 1x10^5 colony-forming units; cited from earlier work
Staphylococcus aureus = conditions: 1x10^5 colony-forming units; cited from earlier work
[2] = test system: differentiated primary human airway epithelial cells; experiment: Co-culture model: epithelial cell toxicity by transepithelial resistance; assay type: cell-based; conditions: at a decrease in bacterial counts by two orders of magnitude, Figure 9
Source text: The antimicrobial peptides of the invention display selective toxicity to target microorganisms and minimal toxicity to mammalian cells. Determining the toxicity of the peptides claimed in this invention on mammalian cells is preferably performed using tissue culture assays. For mammalian cells, such assay methods include, inter alia, trypan blue exclusion and MTT assays (see Moore et al., 1994, Peptide Research 7:265-269). […] In addition, the disruption of the transepithelial resistance (Rte) of a cell monolayer that have formed tight junctions can be monitored. […]
Preparation of eukaryotic cells. […] In order to release viable bacteria, trypsin/EDTA was added and these preparations were plated on standard bacteriologic media to quantify bacterial survival. Similarly prepared cells were monitored for peptide toxicity by measuring transepithelial resistance. […]
Based on above in vitro findings, WLSA-5 (SEQ ID NO:3) was tested in a scenario that more accurately assessed its selective toxicity. […] The ability of peptide to kill bacteria is monitored as a function of viable bacteria associated with the epithelial cells after peptide exposure. […]

| Compound | affinity for calmodulin [1] | time to nearly sterilize a suspension (Pseudomonas aeruginosa) [s] | time to nearly sterilize a suspension (Staphylococcus aureus) [s] | change in transepithelial resistance [2] |
| --- | --- | --- | --- | --- |
| CC[C@H](C)[C@H](NC(=O)[C@H](C)NC(=O)[C@H](CCCNC(=N)N)NC(=O)[C@H](CS)NC(=O)[C@H](C)NC(=O)CNC(=O)[C@H](CCC(N)=O)NC(=O)[C@@H](NC(=O)[C@@H](NC(=O)[C@H](CCC(=O)O)NC(=O)[C@@H](NC(=O)[C@@H](NC(=O)[C@@H](N)CCCNC(=N)N)C(C)C)[C@@H](C)CC)C(C)C)C(C)C)C(=O)N[C@@H](CCCNC(=N)N)C(=O)N[C@@H](Cc1c[nH]cn1)C(=O)N[C@H](C(=O)N1CCC[C@H]1C(=O)N[C@@H](CCCNC(=N)N)C(=O)N[C@@H](CCCNC(=N)N)C(=O)N[C@H](C(=O)N[C@@H](CCCNC(=N)N)C(=O)N[C@@H](CCC(N)=O)C(=O)NCC(=O)N[C@@H](CC(C)C)C(=O)N[C@@H](CCC(=O)O)C(=O)N[C@@H](CCCNC(=N)N)C(=O)N[C@H](C(=O)N[C@@H](CC(C)C)C(=O)O)[C@@H](C)CC)[C@@H](C)CC)[C@@H](C)CC [LLP1] (H-RVIEVVQGACRAIRHIPRRIRQGLERIL-OH; N-terminus and C-terminus assumed) | near nanomolar affinity | ≤ 60 | ≤ 60 |  |
| CC[C@H](C)[C@H](NC(=O)[C@H](C)NC(=O)[C@H](CCCNC(=N)N)NC(=O)[C@H](CS)NC(=O)[C@H](Cc1c[nH]c2ccccc12)NC(=O)[C@H](CCCNC(=N)N)NC(=O)[C@H](CCC(N)=O)NC(=O)[C@@H](NC(=O)[C@@H](NC(=O)[C@H](CCCNC(=N)N)NC(=O)[C@@H](NC(=O)[C@H](Cc1c[nH]c2ccccc12)NC(=O)[C@@H](N)CCCNC(=N)N)[C@@H](C)CC)C(C)C)C(C)C)C(=O)N[C@@H](CCCNC(=N)N)C(=O)N[C@@H](Cc1c[nH]cn1)C(=O)N[C@H](C(=O)N[C@@H](Cc1c[nH]c2ccccc12)C(=O)N[C@@H](CCCNC(=N)N)C(=O)N[C@@H](CCCNC(=N)N)C(=O)N[C@H](C(=O)N[C@@H](CCCNC(=N)N)C(=O)N[C@@H](CCC(N)=O)C(=O)NCC(=O)N[C@@H](CC(C)C)C(=O)N[C@@H](CCCNC(=N)N)C(=O)N[C@@H](CCCNC(=N)N)C(=O)N[C@@H](Cc1c[nH]c2ccccc12)C(=O)N[C@@H](CC(C)C)C(=O)N[C@@H](CCCNC(=N)N)C(=O)N[C@H](C(=O)N[C@H](C(=O)O)C(C)C)C(C)C)[C@@H](C)CC)[C@@H](C)CC [WLSA-5] (H-RWIRVVQRWCRAIRHIWRRIRQGLRRWLRVV-OH) |  |  |  | less than 50% |
